Assay results published in PubChem BioAssay (NCI).
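How tested: cells in 96-well plates exposed to compound for 48 hours at five concentrations. TGI: total growth inhibition.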

How the values were obtained:
Assay in all cases: NCI tumour cell line growth inhibition, 48 h
HCT-15 colon = test system: HCT-15 colon
HL-60(TB) leukemia = test system: HL-60(TB) leukemia
K-562 leukemia = test system: K-562 leukemia
M14 melanoma = test system: M14 melanoma
MDA-MB-231 breast = test system: MDA-MB-231 breast
NCI-H23 lung = test system: NCI-H23 lung
OVCAR-4 ovarian = test system: OVCAR-4 ovarian
RPMI-8226 leukemia = test system: RPMI-8226 leukemia
SK-MEL-28 melanoma = test system: SK-MEL-28 melanoma
SN12C renal = test system: SN12C renal
SNB-75 CNS = test system: SNB-75 CNS
TK-10 renal = test system: TK-10 renal
SK-MEL-2 melanoma = test system: SK-MEL-2 melanoma
MDA-MB-435 = test system: MDA-MB-435

For `S=C1C=C(c2ccccc2)Sc2ccccc2N1`, the TGI (HCT-15 colon) was over 100 µM, the TGI (HL-60(TB) leukemia) was over 100 µM and the TGI (K-562 leukemia) was over 100 µM. For the same molecule, the TGI (M14 melanoma) was over 100 µM, the TGI (MDA-MB-231 breast) was over 100 µM and the TGI (NCI-H23 lung) was over 100 µM. For the same molecule, the TGI (OVCAR-4 ovarian) was over 100 µM, the TGI (RPMI-8226 leukemia) was over 100 µM and the TGI (SK-MEL-28 melanoma) was over 100 µM. The TGI (SN12C renal) was over 100 µM, the TGI (SNB-75 CNS) was over 100 µM and the TGI (TK-10 renal) was over 100 µM.
`COc1ccc2c(c1)c1cc(OC)ccc1n2CCCCOc1ccc(-c2c3ccccc3c(-c3ccc(OCCCCn4c5ccc(OC)cc5c5cc(OC)ccc54)cc3)c3ccccc23)cc1` showed a TGI (HCT-15 colon) of over 100 µM, a TGI (K-562 leukemia) of over 100 µM and a TGI (M14 melanoma) of over 100 µM. For the same molecule, the TGI (OVCAR-4 ovarian) was over 100 µM, the TGI (SK-MEL-2 melanoma) was over 100 µM and the TGI (SK-MEL-28 melanoma) was over 100 µM. It also gave a TGI (SN12C renal) of over 100 µM, a TGI (SNB-75 CNS) of over 100 µM and a TGI (TK-10 renal) of over 100 µM.
`O=C(NC(Nc1ccc(F)c(Cl)c1)(C(F)(F)F)C(F)(F)F)C(C(F)(F)F)C(F)(F)F` was tested, and the TGI (HCT-15 colon) was over 100 µM, the TGI (HL-60(TB) leukemia) was 44.6 µM and the TGI (K-562 leukemia) was 77.1 µM. For the same molecule, the TGI (M14 melanoma) was over 100 µM, the TGI (MDA-MB-231 breast) was 78.9 µM and the TGI (MDA-MB-435) was over 100 µM. The TGI (NCI-H23 lung) was 67.1 µM, the TGI (OVCAR-4 ovarian) was 88.9 µM and the TGI (RPMI-8226 leukemia) was 66.8 µM. It also gave a TGI (SK-MEL-2 melanoma) of 44.5 µM, a TGI (SK-MEL-28 melanoma) of over 100 µM and a TGI (SN12C renal) of over 100 µM. It also gave a TGI (TK-10 renal) of over 100 µM.
In the case of `CC(C)[Si]1(C(C)C)OCC2OC(n3ccc(=O)[nH]c3=O)C(O)(CO)C2O[Si](C(C)C)(C(C)C)O1` (configuration not stated), the TGI (HCT-15 colon) is reported as 36.2 µM, the TGI (HL-60(TB) leukemia) is reported as over 100 µM and the TGI (K-562 leukemia) is reported as 81.6 µM. The TGI (M14 melanoma) was 34.8 µM, the TGI (MDA-MB-231 breast) was 26.7 µM and the TGI (MDA-MB-435) was 31.6 µM. The TGI (NCI-H23 lung) was 12.5 µM, the TGI (OVCAR-4 ovarian) was 26.9 µM and the TGI (RPMI-8226 leukemia) was 26.2 µM. It also gave a TGI (SK-MEL-2 melanoma) of 31 µM, a TGI (SK-MEL-28 melanoma) of 36.7 µM and a TGI (SN12C renal) of 29.8 µM. It also gave a TGI (TK-10 renal) of 31.3 µM.
`COc1nc(=O)n(C2CC(N=[N+]=[N-])C(CO)O2)cc1C` (configuration not stated) showed a TGI (HCT-15 colon) of over 100 µM, a TGI (HL-60(TB) leukemia) of over 100 µM and a TGI (K-562 leukemia) of over 100 µM. The TGI (M14 melanoma) was over 100 µM, the TGI (MDA-MB-231 breast) was over 100 µM and the TGI (MDA-MB-435) was over 100 µM. It also gave a TGI (NCI-H23 lung) of over 100 µM, a TGI (OVCAR-4 ovarian) of over 100 µM and a TGI (SK-MEL-2 melanoma) of over 100 µM. For the same molecule, the TGI (SK-MEL-28 melanoma) was over 100 µM, the TGI (SN12C renal) was over 100 µM and the TGI (TK-10 renal) was over 100 µM.
For `CCC(=O)NCCc1c[nH]c2ccc(OC)cc12`, the TGI (HCT-15 colon) was over 100 µM, the TGI (K-562 leukemia) was over 100 µM and the TGI (M14 melanoma) was over 100 µM. The TGI (MDA-MB-231 breast) was over 100 µM, the TGI (MDA-MB-435) was over 100 µM and the TGI (NCI-H23 lung) was over 100 µM. The TGI (OVCAR-4 ovarian) was over 100 µM, the TGI (RPMI-8226 leukemia) was over 100 µM and the TGI (SK-MEL-2 melanoma) was over 100 µM. For the same molecule, the TGI (SK-MEL-28 melanoma) was over 100 µM, the TGI (SN12C renal) was over 100 µM and the TGI (SNB-75 CNS) was over 100 µM. It also gave a TGI (TK-10 renal) of over 100 µM.
Molecule `CC12ON=C(c3ccccc3)N1C=CN1C(c3ccccc3)=NOC12` (configuration not stated) has a TGI (HCT-15 colon) of over 100 µM, a TGI (M14 melanoma) of over 100 µM and a TGI (MDA-MB-231 breast) of over 100 µM. For the same molecule, the TGI (NCI-H23 lung) was over 100 µM, the TGI (SNB-75 CNS) was over 100 µM and the TGI (TK-10 renal) was over 100 µM.
`CCOC(=O)c1c(SCCO)n(-c2ccccc2)c(=S)n(-c2ccccc2)c1=O` gave a TGI (HCT-15 colon) of over 100 µM, a TGI (HL-60(TB) leukemia) of over 100 µM and a TGI (K-562 leukemia) of over 100 µM. The TGI (M14 melanoma) was over 100 µM, the TGI (MDA-MB-435) was over 100 µM and the TGI (NCI-H23 lung) was over 100 µM. For the same molecule, the TGI (OVCAR-4 ovarian) was over 100 µM, the TGI (RPMI-8226 leukemia) was over 100 µM and the TGI (SK-MEL-2 melanoma) was over 100 µM. It also gave a TGI (SK-MEL-28 melanoma) of over 100 µM, a TGI (SN12C renal) of over 100 µM and a TGI (SNB-75 CNS) of over 100 µM. It also gave a TGI (TK-10 renal) of over 100 µM.
Work on `COCN1C(=O)[C@@H]2CCCN2C(=O)c2cc([N+](=O)[O-])ccc21` yielded a TGI (HCT-15 colon) of over 100 µM, a TGI (M14 melanoma) of over 100 µM and a TGI (MDA-MB-231 breast) of over 100 µM. It also gave a TGI (MDA-MB-435) of over 100 µM, a TGI (NCI-H23 lung) of over 100 µM and a TGI (OVCAR-4 ovarian) of over 100 µM. It also gave a TGI (SK-MEL-2 melanoma) of over 100 µM, a TGI (SK-MEL-28 melanoma) of over 100 µM and a TGI (SN12C renal) of over 100 µM. For the same molecule, the TGI (SNB-75 CNS) was over 100 µM and the TGI (TK-10 renal) was over 100 µM.
